We go through 19 compounds from patent publication US20220033407A1, “N-(pyridin-2-ylsulfonyl)cyclopropanecarboxamide Derivatives and their Use in the Treatment of Disease” (NOVARTIS AG, priority 2018, published 2022).

In test [1] the target is T1, delF508-CFTR-HRP (Homo sapiens, UniProt P13569, DEL508-508).
T1 construct: expressed in transfected cells
Kind of test: Measurement of delF508-CFTR-HRP surface expression in CFBE41o- cells (HRP luminescence).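 For DelF508-CFTR-HRP Amax %: percent efficacy relative to a reference CFTR corrector compound.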 The format is cell-based. Conditions: for Emax: CFBE41o-, read-out: DelF508-CFTR-HRP Amax %; for EC50: mean of at least two replicates. In a few lines: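 EC50 derived by logistic regression of triplicate surface-HRP luminescence, plate-normalized to the lowest-concentration median. Doxycycline (500 ng/mL, 48 h) induced delF508-CFTR-HRP in CFBE41o- cells; compounds then applied 24 h at 37° C, 10 μM top, 3-fold over 10 points.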

Test [2] concerns the target T2, delF508-CFTR (Homo sapiens, UniProt P13569, DEL508-508).
T2 construct: functional activity of the CFTR channel (Chloride ion transport) in patient derived primary human bronchial epithelial cells; host or cells: patient-derived primary human bronchial epithelial cells (HBECs), delF508-CFTR
Description: delF508-CFTR functional activity in primary human bronchial epithelial cells (HBECs), Multi-Transepithelial Clamp Circuit (MTECC-24) assay, equivalent short circuit current. Format: cell-based. Conditions: primary CF HBECs; for MTECC24 CFHBEC-Amax %: relative to reference combination 2 μM 3-(6-(1-(2,2-difluorobenzo[d][1,3]dioxol-5-yl)cyclopropane-1-carboxamido)-3-methylpyridin-2-yl)benzoic acid (24 h) + 0.5 μM N-(2,4-di-tert-butyl-5-hydroxyphenyl)-4-oxo-1,4-dihydroquinoline-3-carboxamide; for EC50: test compound added 24 h before assay, potentiator (S)-3-amino-6-methoxy-N-(3,3,3-trifluoro-2-hydroxy-2-methylpropyl)-5-(trifluoromethyl)picolinamide present at assay, mean of at least two replicates, read-out: MTECC24 CFHBEC-EC50. In a few lines: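 Compound acted as corrector on differentiated primary delF508-CFTR bronchial cultures, first 24 h basolaterally, then 45 min both sides before reading. Equivalent short circuit current was recorded during sequential forskolin and potentiator addition. EC50 came from 10-point, 1-in-3 dilution curves against the 0.1% DMSO baseline.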

T2 sequence (P13569 with tags, fused parts or gaps DEL508-508): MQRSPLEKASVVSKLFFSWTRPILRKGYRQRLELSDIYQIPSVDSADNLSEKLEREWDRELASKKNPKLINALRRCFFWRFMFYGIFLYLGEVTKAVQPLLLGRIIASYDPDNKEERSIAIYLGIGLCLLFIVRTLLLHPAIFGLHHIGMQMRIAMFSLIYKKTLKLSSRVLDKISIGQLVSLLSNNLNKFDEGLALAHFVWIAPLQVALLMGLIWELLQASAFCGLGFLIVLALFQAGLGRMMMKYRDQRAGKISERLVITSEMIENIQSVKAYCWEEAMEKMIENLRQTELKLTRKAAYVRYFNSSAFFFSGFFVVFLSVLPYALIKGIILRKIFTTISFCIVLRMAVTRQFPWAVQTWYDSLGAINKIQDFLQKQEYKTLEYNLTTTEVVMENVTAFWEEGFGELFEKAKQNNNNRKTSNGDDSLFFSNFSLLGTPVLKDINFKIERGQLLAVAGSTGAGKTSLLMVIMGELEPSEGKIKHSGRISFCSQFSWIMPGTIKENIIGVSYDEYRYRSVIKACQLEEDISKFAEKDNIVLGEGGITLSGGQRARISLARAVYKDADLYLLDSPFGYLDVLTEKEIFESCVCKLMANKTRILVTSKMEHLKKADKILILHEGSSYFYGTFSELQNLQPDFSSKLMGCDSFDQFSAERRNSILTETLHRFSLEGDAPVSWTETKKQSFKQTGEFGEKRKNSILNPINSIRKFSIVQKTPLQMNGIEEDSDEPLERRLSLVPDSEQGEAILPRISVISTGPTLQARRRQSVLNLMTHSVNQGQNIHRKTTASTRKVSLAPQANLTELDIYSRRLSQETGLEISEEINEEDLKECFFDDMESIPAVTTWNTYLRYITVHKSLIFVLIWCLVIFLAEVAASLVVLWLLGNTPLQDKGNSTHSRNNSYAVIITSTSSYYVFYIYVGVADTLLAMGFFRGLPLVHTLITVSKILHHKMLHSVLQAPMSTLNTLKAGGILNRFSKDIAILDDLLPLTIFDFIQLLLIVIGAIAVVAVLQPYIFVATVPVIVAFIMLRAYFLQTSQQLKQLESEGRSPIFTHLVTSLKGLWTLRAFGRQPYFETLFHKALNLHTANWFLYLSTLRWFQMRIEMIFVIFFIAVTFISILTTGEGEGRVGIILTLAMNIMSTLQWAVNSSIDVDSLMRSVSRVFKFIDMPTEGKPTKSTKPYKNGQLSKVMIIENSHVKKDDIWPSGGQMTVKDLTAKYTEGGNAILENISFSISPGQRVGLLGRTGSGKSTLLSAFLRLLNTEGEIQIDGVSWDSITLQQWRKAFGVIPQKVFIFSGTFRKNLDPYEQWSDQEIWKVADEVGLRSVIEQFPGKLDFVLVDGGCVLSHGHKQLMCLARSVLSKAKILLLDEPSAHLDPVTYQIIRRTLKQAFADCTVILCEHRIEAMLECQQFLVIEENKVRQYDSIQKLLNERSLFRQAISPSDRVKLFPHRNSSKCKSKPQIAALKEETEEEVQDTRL
T1 sequence (P13569 with tags, fused parts or gaps DEL508-508): as above

With `Cc1ccc(C2CCCCC2)c(OC2(C(=O)NS(=O)(=O)c3cccc(N4CCC(C)(NC(=O)C5CC5)CC4)n3)CC2)c1` [Example 2-10, 1-(2-Cyclohexyl-5-methylphenoxy)-N-((6-(4-(cyclopropanecarboxamido)-4-methylpiperidin-1-yl)pyridin-2-yl)sulfonyl)cyclopropanecarboxamide], in test [1], the Emax came to 327% and the EC50 is 1.81 µM. In test [2], the “MTECC24 CFHBEC-Amax %” value is 56% and the EC50 worked out at 0.003 µM.

Take `Cc1ccc(C2CCC(F)(F)CC2)c(OC2(C(=O)NS(=O)(=O)c3cccc(N[C@H](C)CO)n3)CC2)c1` [Example 3-5]: in test [1], the Emax is 363% and the EC50 was 3.97 µM. In test [2], the “MTECC24 CFHBEC-Amax %” value was determined as 64% and the EC50 was 0.052 µM.

With `CC1(C)CCN(c2ccc(Cl)cc2OC2(C(=O)NS(=O)(=O)c3cccc(N4CCC(O)CC4)n3)CC2)CC1` [Example 9-41, 1-(5-Chloro-2-(4,4-dimethylpiperidin-1-yl)phenoxy)-N-((6-(4-hydroxypiperidin-1-yl)pyridin-2-yl)sulfonyl)cyclopropane-1-carboxamide], in test [1], the Emax turned out to be 656% and the EC50 came out at 1.58 µM. In test [2], the “MTECC24 CFHBEC-Amax %” value is reported as 79.3% and the EC50 worked out at 0.29 µM.

For `O=C(NS(=O)(=O)c1cccc(N2CC[C@H](O)C2)n1)C1(Oc2cc(Cl)ccc2N2CCC3(CCCC3)CC2)CC1` [Example 9-13, (S)-1-(5-Chloro-2-(8-azaspiro[4.5]decan-8-yl)phenoxy)-N-((6-(3-hydroxypyrrolidin-1-yl)pyridin-2-yl)sulfonyl)cyclopropanecarboxamide], in test [1], the Emax stood at 638% and it took 1.04 µM to reach a half-maximal effect (EC50). In test [2], the “MTECC24 CFHBEC-Amax %” value was 128.4% and the EC50 stood at 0.171 µM.

For the compound `CC1(C)CCN(c2ccc(Cl)cc2OC2(C(=O)NS(=O)(=O)c3cccc(N4CCC(O)(C(C)(C)C)CC4)n3)CC2)CC1` [Example 10-6, N-((6-(4-(tert-butyl)-4-hydroxypiperidin-1-yl)pyridin-2-yl)sulfonyl)-1-(5-chloro-2-(4,4-dimethylpiperidin-1-yl)phenoxy)cyclopropanecarboxamide], in test [1], the Emax was determined as 462% and the EC50 came to 0.75 µM. In addition, in test [2], the “MTECC24 CFHBEC-Amax %” value came out at 103.9% and the EC50 came out at 0.08 µM.

`COC1CN(c2cccc(S(=O)(=O)NC(=O)C3(Oc4cc(C)ccc4C4CCCCC4)CC3)n2)C1` [Example 2-18, 1-(2-Cyclohexyl-5-methylphenoxy)-N-((6-(3-methoxyazetidin-1-yl)pyridin-2-yl)sulfonyl)cyclopropanecarboxamide]: in test [1], the Emax came out at 597% and the response was half-maximal at 1.58 µM (EC50). In test [2], the “MTECC24 CFHBEC-Amax %” value stood at 91% and the EC50 worked out at 0.021 µM.

Turning to `O=C(NS(=O)(=O)c1cccc(N2CC[C@H](O)C2)n1)C1(Oc2cc(Cl)ccc2N2CC3(CCCCC3)C2)CC1` [Example 9-1, (S)-1-(5-chloro-2-(2-azaspiro[3.5]nonan-2-yl)phenoxy)-N-((6-(3-hydroxypyrrolidin-1-yl)pyridin-2-yl)sulfonyl)cyclopropanecarboxamide], in test [1], the Emax was 647% and the EC50 was determined as 1.06 µM. Further, in test [2], the “MTECC24 CFHBEC-Amax %” value is reported as 206.5% and the EC50 came to 0.294 µM.

In the case of `CC(C)CCOc1ccc(Cl)cc1OC1(C(=O)NS(=O)(=O)c2cccc(N3CC[C@H](O)C3)n2)CC1` [Example 6-12, (S)-1-(5-chloro-2-(isopentyloxy)phenoxy)-N-((6-(3-hydroxypyrrolidin-1-yl)pyridin-2-yl)sulfonyl)cyclopropanecarboxamide], in test [1], the Emax was determined as 297% and the midpoint of the response, the EC50, lay at 2.71 µM. Moreover, in test [2], the “MTECC24 CFHBEC-Amax %” value is on record as 111.4% and the EC50 turned out to be 0.852 µM.

Take `Cc1ccc(-c2cc(F)cc(OCC(C)C)c2)c(OC2(C(=O)NS(=O)(=O)c3cccc(N)n3)CC2)c1` [Example 1-2, N-((6-Aminopyridin-2-yl)sulfonyl)-1-((3′-fluoro-5′-isobutoxy-4-methyl-[1,1′-biphenyl]-2-yl)oxy)cyclopropane-1-carboxamide]: in test [1], the Emax is 136% and a half-maximal effect (EC50) was put at 2.44 µM. Further, in test [2], the “MTECC24 CFHBEC-Amax %” value is 89% and the EC50 came out at 0.045 µM.

As to `Cc1ccc(C2CCCCC2)c(OC2(C(=O)NS(=O)(=O)c3cccc(NC[C@H](C)O)n3)CC2)c1` [Example 2-47, (S)-1-(2-Cyclonexyl-5-methylphenoxy)-N-((6-((2-hydroxypropyl)amino)pyridin-2-yl)sulfonyl)cyclopropane-1-carboxamide], in test [1], the Emax amounted to 747% and the response was half-maximal at 2.42 µM (EC50). In test [2], the “MTECC24 CFHBEC-Amax %” value is listed as 97% and the EC50 is 0.006 µM.

For the compound `Cc1ccc(C2CCCCCC2)c(OC2(C(=O)NS(=O)(=O)c3cccc(N)n3)CC2)c1` [Example 1-6, N-((6-Aminopyridin-2-yl)sulfonyl)-1-(2-cycloheptyl-5-methylphenoxy)cyclopropane-1-carboxamide], in test [1], the Emax came out at 765% and a half-maximal response (EC50) required 1.31 µM. Moreover, in test [2], the “MTECC24 CFHBEC-Amax %” value worked out at 87% and the EC50 amounted to 0.002 µM.

As for `COC(=O)C1(C)CCN(c2cccc(S(=O)(=O)NC(=O)C3(Oc4cc(C)ccc4C4CCCCC4)CC3)n2)CC1` [Example 2-3, Methyl 1-(6-(N-(1-(2-cyclohexyl-5-methylphenoxy)cyclopropanecarbonyl)sulfamoyl)pyridin-2-yl)-4-methylpiperidine-4-carboxylate], in test [1], the Emax stood at 337% and the EC50 came out at 0.46 µM. In test [2], the “MTECC24 CFHBEC-Amax %” value was found to be 79% and the EC50 came to 0.005 µM.

Regarding `Cc1ccc(C2CCC(C)(C)OC2)c(OC2(C(=O)NS(=O)(=O)c3cccc(N4CCC(O)(c5ccc(Cl)cc5)CC4)n3)CC2)c1` (single isomer, unassigned) [Example 11-1-2, N-((6-(4-(4-chlorophenyl)-4-hydroxypiperidin-1-yl)pyridin-2-yl)sulfonyl)-1-(2-(6,6-dimethyltetrahydro-2H-pyran-3-yl)-5-methylphenoxy)cyclopropane-1-carboxamide], in test [1], the “DelF508-CFTR-HRP Amax %” value was 819.2% and a half-maximal response (EC50) required 0.9 µM. In test [2], the “MTECC24 CFHBEC-Amax %” value worked out at 191.0% and the EC50 stood at 0.176 µM.

For `Cc1ccc(C2CCCCC2)c(OC2(C(=O)NS(=O)(=O)c3cccc(N4CCOC(C)C4)n3)CC2)c1` (stereo not shown) [Example 2-51, 1-(2-Cyclohexyl-5-methylphenoxy)-N-((6-(2-methylmorpholino)pyridin-2-yl)sulfonyl)cyclopropane-1-carboxamide], in test [1], the Emax was found to be 621% and the EC50 is 1.76 µM. Also, in test [2], the “MTECC24 CFHBEC-Amax %” value is 85% and the half-maximal effective concentration (EC50) was 0.003 µM.

In the case of `COc1ccc(C2CCC(F)(F)CC2)c(OC2(C(=O)NS(=O)(=O)c3cccc(N4CCC[C@H](CO)C4)n3)CC2)c1` [Example 3-7, (S)-1-(2-(4,4-Difluorocyclohexyl)-5-methoxyphenoxy)-N-((6-(3-(hydroxymethyl)piperidin-1-yl)pyridin-2-yl)sulfonyl)cyclopropane-1-carboxamide], in test [1], the Emax turned out to be 258% and the EC50 is 3.41 µM. Also, in test [2], the “MTECC24 CFHBEC-Amax %” value was 51% and the EC50 was determined as 0.035 µM.

Turning to `Cc1ccc(C2CCCC2)c(OC2(C(=O)NS(=O)(=O)c3cccc(NC[C@@H](C)O)n3)CC2)c1` [Example 4-6, (R)-1-(2-Cyclopentyl-5-methylphenoxy)-N-((6-((2-hydroxypropyl)amino)pyridin-2-yl)sulfonyl)cyclopropane-1-carboxamide], in test [1], the Emax came to 537% and a half-maximal response (EC50) required 3.35 µM. For the same compound, in test [2], the “MTECC24 CFHBEC-Amax %” value was 78% and the EC50 came to 0.012 µM.

Regarding `O=C(NS(=O)(=O)c1cccc(N2CCC(O)CC2)n1)C1(Oc2cc(Cl)ccc2C2CC3(CCC3)C2)CC1` [Example 7-11, 1-(5-Chloro-2-(spiro[3.3]heptan-2-yl)phenoxy)-N-((6-(4-hydroxypiperidin-1-yl)pyridin-2-yl)sulfonyl)cyclopropane-1-carboxamide], in test [1], the Emax was 446% and the EC50 is 1.26 µM. Further, in test [2], the “MTECC24 CFHBEC-Amax %” value was 154.0% and the EC50 was found to be 0.197 µM.

For `Cc1ccc(C2CCCCC2)c(OC2(C(=O)NS(=O)(=O)c3cccc(N4CCNCC4)n3)CC2)c1` [Example 2-31, 1-(2-Cyclohexyl-5-methylphenoxy)-N-((6-(piperazin-1-yl)pyridin-2-yl)sulfonyl)cyclopropanecarboxamide], in test [1], the Emax amounted to 96% and the EC50 stood at 3.25 µM. Moreover, in test [2], the “MTECC24 CFHBEC-Amax %” value worked out at 89% and the EC50 came to 0.421 µM.

`O=C(NS(=O)(=O)c1cccc(N2CC[C@H](O)C2)n1)C1(Oc2cc(Cl)ccc2-c2cccc(C(F)(F)F)c2)CC1` [Example 5-2, (S)-1-((4-Chloro-3′-(trifluoromethyl)-[1,1′-biphenyl]-2-yl)oxy)-N-((6-(3-hydroxypyrrolidin-1-yl)pyridin-2-yl)sulfonyl)cyclopropane-1-carboxamide]: in test [1], the Emax came to 313% and the midpoint of the response, the EC50, lay at 1.58 µM. Further, in test [2], the “MTECC24 CFHBEC-Amax %” value stood at 62% and the EC50 came to 0.099 µM.

A word on the EC50: it is the concentration needed to bring the measured effect to its halfway point.
